Measured values: article PMC7160673, “A Degenerate Peptide Library Approach to Reveal Sequence Determinants of Methyllysine-Driven Protein Interactions” (Frontiers in Cell and Developmental Biology, 2020)
Where no end group is shown, it is not given here. Peg = not defined here

Columns and labels:
Type in all cases: binding
[1] = tested on: Active Motif #39161, anti-H3K9me3; test: Histone peptide microarray, Active Motif 39161; conditions: Active Motif 39161 (anti-H3K9me3) hits
[2] = tested on: Millipore #07-449, anti-H3K27me3; test: Histone peptide microarray, Millipore 07-449; conditions: Millipore 07-449 (anti-H3K27me3) hits, average signal per peptide
CDYL2 chromo = target: T1, CDYL2 chromo (Homo sapiens, UniProt Q8N8U2); test: Histone peptide microarray, CDYL2 chromo; conditions: normalized histone peptide array signal, hits; hybridization with 1 M CDYL2 chromo (so in the source); two subarrays
T1 construct: 1-75; made in house; host or cells: E. coli BL21
T1 sequence (Q8N8U2 1-75): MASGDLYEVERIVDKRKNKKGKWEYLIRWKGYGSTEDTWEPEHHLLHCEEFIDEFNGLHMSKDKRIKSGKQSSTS
Protocol: (§1) Peptide microarrays were fabricated using an Aushon 2470 microarrayer and used as described ([Cornett et al., 2017]) with the following modifications. Protein and antibody hybridization steps were performed in buffer containing 25 mM HEPES pH 7.5, 100 mM NaCl, 0.5% BSA (w/v), and 0.1% NP-40. Slides were washed 3 × 5 min in PBS supplemented with 0.1% Tween-20 between each hybridization step. Antibodies used were primary anti-GST (Sigma #7781, 1:2,000 dilution) and an AlexaFluor 647-labeled secondary antibody (Life Technologies A-21245, 1:5,000 dilution). […] Full lists of peptides queried by array analysis are in Supplementary Table S2.

CST 9733 (anti-H3K27me3) = test: Histone peptide microarray, CST 9733; conditions: histone peptide array signal normalized to the highest peptide average per subarray, hits; CST 9733 LOT:14 dilution 1:5,000
53BP1 TTD = test: Histone peptide microarray, 53BP1 TTD; conditions: 53BP1 TTD hits, average signal per peptide
Outline: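 Printed histone peptide arrays; hybridization buffer 25 mM HEPES pH 7.5 / 100 mM NaCl / 0.5% BSA / 0.1% NP-40. Washes PBS + 0.1% Tween-20, 3 × 5 min per step. Detection: anti-GST 1:2,000 → AlexaFluor 647 secondary 1:5,000.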

[3] = tested on: ABClonal #A2355, anti-H3K4me1; test: Histone peptide microarray, ABclonal A2355; conditions: Abclonal A2355 (anti-H3K4me1) hits
MPP8 chromo = target: T2, MPP8 chromo (Homo sapiens, UniProt Q99549); test: Histone peptide microarray, MPP8 chromo; conditions: normalized histone peptide array signal, hits; hybridization with 1 M MPP8 chromo (so in the source); two subarrays
T2 construct: 50-118; made in house; host or cells: E. coli BL21
T2 sequence (Q99549 50-118): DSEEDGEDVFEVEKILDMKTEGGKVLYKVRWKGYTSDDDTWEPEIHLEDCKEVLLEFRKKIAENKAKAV
Protocol: as §1

[4] = tested on: Abcam #ab8895, anti-H3K4me1; test: Histone peptide microarray, Abcam ab8895; conditions: Abcam ab8895 (anti-H3K4me1) hits, average signal per peptide

| Substance | Avg Signal [1] | Avg Signal [2] | Avg Signal (CDYL2 chromo) | Avg Signal (CST 9733 (anti-H3K27me3)) | Avg Signal (53BP1 TTD) | Avg Signal [3] | Avg Signal (MPP8 chromo) | Avg Signal [4] |
| --- | --- | --- | --- | --- | --- | --- | --- | --- |
| ARTKQTAR(Me2a)K(Me3)STGGKAPRKQL-K(Biot)-NH2 [H3.1R8me2aK9me3] | 0.6713 | 0.01827 | 0.3975 | 0.008858 | 0.2106 | 0.0005778 | 0.8359 | 0.1096 |
| ARTK(Me2)QTARK(Me2)STGGKA-Peg-Biot [H3.1K4me2K9me2] | 0.001292 | – | 0.1337 | 0.0004919 | – | 0.2431 | 0.2515 | 0.2534 |
| Ac-TARK(Me2)STGGKAPRKQLATKAARK(Me2)SAP-Peg-K(Biot)-NH2 [H3.1K9me2K27me2] | 0.0006693 | 0.009651 | 1 | 0.04684 | – | 0.0002867 | 0.9552 | 0.004725 |
| ARTK(Me3)QTARK(Me3)STGGKAPRKQL-K(Biot)-NH2 [H3.1K4me3K9me3] | 1 | 0.1282 | 0.4091 | 0.02074 | 0.1303 | 0.008666 | 0.8973 | 0.01482 |
| AR(Me2a)TKQTARK(Me2)STGGKAPRKQL-Peg-Biotin [H3.1R2me2aK9me2] | – | 0.0074 | 0.425 | 0.0005026 | – | 0.01048 | 0.8941 | 0.226 |
| ARTKQTAR(Me)K(Me3)STGGKAPRKQL-K(Biot)-NH2 [H3.1R8me1K9me3] | 0.7313 | 0.03826 | 0.4762 | 0.005418 | 0.134 | 0.008113 | 0.8612 | 0.156 |
| ARTK(Ac)QTARK(Me3)STGGK(Ac)APRK(Ac)QL-K(Biot)-NH2 [H3.1K4acK9me3K14acK18ac] | 0.7316 | 0.04004 | 0.3091 | 0.01317 | 0.09657 | – | 0.4242 | – |
| ARTKQTARK(Me2)STGGK(Ac)APRKQL-K(Biot)-NH2 [H3.1K9me2K14ac] | 0.00928 | 0.00428 | 0.2985 | 0.0003203 | – | 0.01354 | 0.7946 | 0.2875 |
| PEPAKSAPAPKKGSK(Ac)KAVTKAQKK-Peg-Biot (chain 2 KAVTKAQKK-{Peg-Biot}; not fully specified; reading uncertain) [Peptide H2BK15ac] | 0.01254 | 0.004399 | 0.05586 | – | – | 0.00117 | 0.04671 | 0.0005218 |
| ARTKQTAR(Me2s)K(Me2)STGGKAPRKQL-K(Biot)-NH2 [H3.1R8me2sK9me2] | – | – | 0.1904 | 0.0002216 | 0.3791 | – | 0.6538 | 0.1111 |
| ARTKQTAR(Me)K(Me2)STGGKAPRKQL-K(Biot)-NH2 [H3.1R8me1K9me2] | 0.001142 | 0.003186 | 0.2455 | – | 0.4249 | 0.001447 | 0.5401 | 0.138 |
| ARTK(Me3)QTARK(Me2)STGGKA-Peg-Biot [H3.1K4me3K9me2] | 0.02282 | 0.04855 | 0.1809 | 0.005297 | – | – | 0.4645 | 0.004396 |
| ARTKQTARK(Me2)STGGKAPRKQL-K(Biot)-NH2 [H3.1K9me2 H3.1(1-20)] | – | – | 0.2996 | 0.0005298 | – | – | 0.7317 | – |
| ARTKQTAR(Me2s)K(Me3)STGGKAPRKQL-K(Biot)-NH2 [H3.1R8me2sK9me3] | 0.5557 | 0.05357 | 0.3941 | 0.01037 | 0.1271 | – | 1 | 0.1225 |
| Ac-APRKQLATKAAR(Me2a)K(Me3)SAPSTGG-Peg-Biot [H3.3R26me2aK27me3] | 0.0032 | 0.2433 | 0.1727 | 0.914 | 0.1003 | – | 0.04277 | 0.0125 |
| ARTK(Me)QTARK(Me2)STGGKA-Peg-Biot [H3.1K4me1K9me2] | 0.004399 | 0.001269 | 0.2405 | 0.0001122 | – | 0.6304 | 0.4754 | 0.7578 |
| ARTKQTAR(Me2a)K(Me2)STGGKAPRKQL-K(Biot)-NH2 [H3.1R8me2aK9me2] | 0.006391 | – | 0.1889 | 0.0007823 | 0.547 | – | 0.6312 | 0.1269 |
| ARTK(Me3)QTAR(Me2s)K(Me3)STGGKAPRKQL-K(Biot)-NH2 [H3.1K4me3R8me2sK9me3] | 0.5974 | 0.05738 | 0.4093 | 0.01805 | 0.09278 | 0.001264 | 0.7903 | – |
| ARTK(Me3)QTAR(Me2a)K(Me3)STGGKAPRKQL-K(Biot)-NH2 [H3.1K4me3R8me2aK9me3] | 0.5927 | 0.06329 | 0.3995 | 0.01316 | – | – | 0.8021 | – |
| ARTK(Ac)QTARK(Me3)STGGKAPRKQL-K(Biot)-NH2 [H3.1K4acK9me3] | 0.7317 | 0.01932 | 0.363 | 0.00836 | – | – | 0.6556 | – |
